Data reported in paper PMC4701221, “Novel Promising Estrogenic Receptor Modulators: Cytotoxic and Estrogenic Activity of Benzanilides and Dithiobenzanilides” (PLoS ONE, 2016).
Entries after “also recorded” stand apart in the source; their conditions may differ.

Experiments:
[1] = tested on: MDA-MB-231 cells; experiment: MTT assay, MDA-MB-231; type: cell-based, human
Experimental: (§1) The cell lines used in the cytotoxicity study, besides MCF-12A, were purchased from European Collection of Cell Culture (ECACC, Salisbury, UK): HEK293 (human embryonic kidney, ATTC no. CRL-1573), A549 (Human lung carcinoma, ECACC no. 86012804), CCD39Lu (Human lung fibroblasts, ECACC no. 90110512), MCF-7 (Human breast adenocarcinoma, ECACC no. 86012803) and MDA-MB-231 (Human breast adenocarcinoma ECACC no. 92020424). Cell lines were cultured in DMEM medium without phenol red and supplemented with 10% (v/v) FBS, 1% penicillin-streptomycin and 1% L-glutamine. MCF-12A (ATTC no. […]) was purchased from American Type Culture Collection (ATCC Manassas, VA 20110 USA). MCF-12A cells were kept in 1:1 mixture of Dulbecco’s modified Eagle’s medium and Ham’s F12 medium, 20 ng/ml human epidermal growth factor, 100 ng/ml cholera toxin, 0.01 mg/ml bovine insulin, 500 ng/ml hydrocortisone and 5% horse serum. All cell lines were cultured at 37°C, in a humidified atmosphere containing 5% CO2.
(§2) Compounds were dissolved in DMSO to the final concentration of […]. A549, CCD39Lu, MCF-7, MDA-MB-231 and MCF-12A cells were seeded in 96 wells plates at density 2x10^4 cells/well and incubated overnight as described above. Subsequently, cells were treated with tested compounds at concentrations: 100 μM; 50 μM; 25μM; 12.5μM; 6 μM; 3 μM; 1.5 μM. […] Cells were incubated 72 h at 37°C in a humidified atmosphere containing 5% CO2 in the cell culture media appropriate for each cell line. Then, the medium was aspirated and 170 μl MTT solution (5mg/ml) was added to each well. Plates were incubated for 2 hours at 37°C, and then plates were centrifuged at 1200 rpm for 3 minutes. The formazan crystals were dissolved in 200 μl DMSO and plates were further agitated on a plate shaker at 300–500 rpm for 10 minutes. Absorbance at 570 nm (with reference wavelenght 650 nm) was measured using a plate reader (Biotek Instruments, Elx-800). Cell viability was calculated as a percentage relative to the control.

[2] = MTT assay, CCD39Lu; type: cell-based; conditions: human, CCD39Lu cells (non-tumorigenic lung fibroblasts), read-out: Cytotoxic activity IC50, CCD39Lu
Experimental: as §1, §2

[3] = tested on: MDA-MB-231 cells; experiment: LDH release assay, MDA-MB-231; type: cell-based, human; conditions: 72 h, Fig 2
Experimental: Cytotoxicity was evaluated by measuring the cell membrane permeability, using a LDH assay kit purchased from Cayman Chemical (Ann Arbor USA). The LDH assay was performed for MCF-7 and MDA-MB-231 cells (seeded at 2×10^4 density). As a positive control cell permeabilization with 1%Triton X-100 was used. The assay was performed 72h after start the incubation. Briefly, the plates were centrifuged at 400 ×g for 5 minutes, and 100 μL of supernatant were transferred from each well to the new 96-well plate and analyzed according to the manufacturer’s protocol. 100 μL of reaction mixture, containing lactic acid, NAD^+, tetrazolium salt and diaphorase, was added to each well. Plates were incubated on an orbital shaker for 30 minutes at room temperature and the absorbance at 490 nm was measured with a plate reader (Biotek Instruments, Elx-800). Results were expressed as a percentage of the total value of the positive control.

[4] = molecular target: T1, human ERα receptor (Homo sapiens, UniProt P03372); experiment: Estrogen Receptor luciferase assay in HEK293 cells transfected with ERα; type: cell-based; conditions: HEK293 transfected with ERα and luciferase reporter, compared with estradiol, Fig 3A/3B
T1 construct: host or cells: HEK293
T1 sequence (P03372 1-595): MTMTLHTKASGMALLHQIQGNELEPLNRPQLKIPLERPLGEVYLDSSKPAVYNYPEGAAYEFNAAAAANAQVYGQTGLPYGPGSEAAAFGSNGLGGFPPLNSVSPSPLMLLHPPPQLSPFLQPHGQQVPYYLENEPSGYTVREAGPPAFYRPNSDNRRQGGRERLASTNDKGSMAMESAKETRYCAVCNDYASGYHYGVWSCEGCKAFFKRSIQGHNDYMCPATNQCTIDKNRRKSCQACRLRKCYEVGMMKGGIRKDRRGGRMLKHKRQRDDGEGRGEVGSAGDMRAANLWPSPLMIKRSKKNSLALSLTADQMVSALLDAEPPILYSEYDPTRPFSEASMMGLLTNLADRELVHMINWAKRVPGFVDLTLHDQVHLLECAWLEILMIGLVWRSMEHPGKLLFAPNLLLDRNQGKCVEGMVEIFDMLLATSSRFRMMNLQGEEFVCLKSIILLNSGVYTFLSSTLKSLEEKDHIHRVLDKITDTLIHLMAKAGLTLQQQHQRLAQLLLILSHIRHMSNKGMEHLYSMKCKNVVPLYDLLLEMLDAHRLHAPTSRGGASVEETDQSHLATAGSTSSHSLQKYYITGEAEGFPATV
Description: To obtain a eukaryotic vector expressing only the ER-α nuclear receptor, a construct was designed by cloning a KpnI-BamHI fragment from plasmid pEGFP-C1-ERα containing the ERα coding sequence that includes a stop signal into the pEGFP-N3 plasmid (Clontech Laboratories, Palo Alto, CA) under the control of the CMV promoter. This construction was termed pEGFP-N-ERα, and although it encoded both human ERα receptor and GFP protein, only the former is expressed. For mock transfections, pEGFP-N3 plasmid was digested with BglII and NotI and religated after polishing DNA ends to remove GFP coding sequence. Plasmid sequence was confirmed by automatic sequencing. Prior to transfection, cells were seeded in 48 well plates at density of 1.5 x 10^4 cells/well and incubated for 24 h to reach a cell confluence of 80–90%. […] MCF-7 cells, which endogenously express ERα receptor, were transfected with p3xERRE/ERE-luciferase plus the pRLTK Renilla luciferase control plasmid (95:5). Firefly and Renilla luciferase activities were measured using the Dual Luciferase Assay System (Promega, Madison, WI, USA), following a standard protocol using a Sirius L luminometer (Berthold Technologies, Bad Wildbad, Germany). Data were expressed as relative changes in luciferase activity and normalized to 100%.

With `Fc1ccc(NC(=S)c2ccc(NC(=S)c3ccc(F)cc3)cc2)cc1` [Compound 18] the “Toxicity/effect in MTT assay (in words), MDA-MB-231” value ([1]; 72 h) was “non-significant effects”, the IC50 ([1]; Homo sapiens, MDA-MB-231, 72 h, estrogen independent breast adenocarcinoma, read-out: Cytotoxic activity IC50, MDA-MB-231) was greater than 100 µM and the IC50 at 72 h [2] was greater than 100 µM. The “LDH release, MDA-MB-231” value [3] was “non-significant effects” and the “ER dependent transcriptional activity” value [4] was “capable to mediate ER dependent transcriptional activity in a similar mode than estradiol; also recorded: higher transcriptional activity at all assayed concentrations compared with estradiol”.
